In patent US4021556A, “Xanthine oxidase inhibitors” (ICN Pharmaceuticals, Inc., priority 1975, dated 1977):

What was measured:
[1] = target: T1, purified milk xanthine oxidase (Bos taurus, UniProt P80457); assay: Xanthine oxidase inhibition, spectrophotometric at 290 nm; format: biochemical; conditions: for relative activity (α) compared to allopurinol: ratio to allopurinol (allopurinol = 1); for IC50: xanthine substrate 0.013 micromoles in 3.0 ml, tris HCl buffer pH 7.50, 25° C, unit taken, none in table
T1 construct: purchased Worthington Biochemical Corporation
Experimental: In this example, the inhibitory activity of the compounds of the invention was determined by recording spectral changes at a constant wavelength of 290 nm, using a Cary Model 15 recording spectrophotometer equipped with a 0-0.1 O.D. slidewire. […] After dissolving in DMSO, the compounds were introduced into the incubation mixture containing 150 micromoles of tris HCl buffer (pH 7.50), 0.6 micromoles EDTA, 0.013 micromoles xanthine, and 20 to 40 micrograms of xanthine oxidase in a final volume of 3.0 milliliters. […] The assay was carried out by mixing all the components in a cuvette at 25° C. The reaction was started by the addition of the enzyme with the aid of a stirrer-adder. Changes in O.D. were measured for several minutes, and the rate (O.D. per minute) was calculated from the spectral change over the first 15 seconds.

[2] = dose killing 50% of a group of animals in two weeks, injected into the intraparietal cavity; 20160 min; cited from earlier work
[3] = cited from earlier work
xanthine oxidase = conditions: metabolite of allopurinol; cited from earlier work

T1 sequence (P80457 whole entry): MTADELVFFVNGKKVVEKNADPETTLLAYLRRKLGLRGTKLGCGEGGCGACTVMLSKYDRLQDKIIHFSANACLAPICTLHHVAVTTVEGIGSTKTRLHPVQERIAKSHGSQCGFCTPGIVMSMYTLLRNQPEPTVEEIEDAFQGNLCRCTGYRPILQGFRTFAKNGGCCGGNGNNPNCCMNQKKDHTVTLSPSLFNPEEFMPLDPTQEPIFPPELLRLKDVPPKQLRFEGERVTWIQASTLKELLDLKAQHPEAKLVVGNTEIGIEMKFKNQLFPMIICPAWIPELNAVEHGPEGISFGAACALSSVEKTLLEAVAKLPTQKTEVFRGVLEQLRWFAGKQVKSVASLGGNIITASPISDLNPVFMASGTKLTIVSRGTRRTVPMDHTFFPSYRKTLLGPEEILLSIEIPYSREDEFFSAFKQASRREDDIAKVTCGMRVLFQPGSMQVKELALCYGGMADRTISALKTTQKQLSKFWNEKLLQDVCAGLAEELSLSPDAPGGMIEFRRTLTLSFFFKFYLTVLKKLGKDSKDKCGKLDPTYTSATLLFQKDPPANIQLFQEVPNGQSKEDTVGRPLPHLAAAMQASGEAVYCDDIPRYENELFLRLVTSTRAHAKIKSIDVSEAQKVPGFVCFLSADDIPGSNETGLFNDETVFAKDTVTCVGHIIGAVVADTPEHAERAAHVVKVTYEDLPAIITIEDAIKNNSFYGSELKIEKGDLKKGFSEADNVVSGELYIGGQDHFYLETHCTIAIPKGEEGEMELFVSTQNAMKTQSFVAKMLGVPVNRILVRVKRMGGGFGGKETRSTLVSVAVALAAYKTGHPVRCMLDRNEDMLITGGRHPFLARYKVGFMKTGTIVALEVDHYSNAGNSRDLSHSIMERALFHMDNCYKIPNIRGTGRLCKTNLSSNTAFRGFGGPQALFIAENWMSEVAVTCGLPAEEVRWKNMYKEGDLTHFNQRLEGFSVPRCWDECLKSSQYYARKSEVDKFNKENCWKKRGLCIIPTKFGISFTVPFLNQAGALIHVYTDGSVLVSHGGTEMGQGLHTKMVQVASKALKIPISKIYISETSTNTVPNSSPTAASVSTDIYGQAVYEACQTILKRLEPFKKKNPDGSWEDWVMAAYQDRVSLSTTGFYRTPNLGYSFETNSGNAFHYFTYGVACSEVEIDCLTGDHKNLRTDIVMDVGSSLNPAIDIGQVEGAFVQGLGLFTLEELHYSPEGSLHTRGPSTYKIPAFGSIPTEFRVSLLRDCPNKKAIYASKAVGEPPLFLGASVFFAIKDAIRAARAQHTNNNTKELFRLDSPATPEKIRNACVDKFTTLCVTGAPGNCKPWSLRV

Row | Compound | relative activity (α) compared to allopurinol [1] | further results
1 | 3-(3'-pyridyl)pyrazolo[1,5,a]pyrimidine-5,7-diol [(8)] | 116 | –
2 | Oc1ccnc2c(-c3ccccc3)cnn12 [Compound (11), 3-phenylpyrazolo[1,5a]pyrimidine-7-ol] | 33 | IC50 [1]: 150 nM
3 | Oc1ncnc2[nH]ncc12 [Allopurinol, allopurinol] | – | LD50 [2]: about 150 milligrams per kilogram of body weight; metabolism in vivo [3]: gradually metabolized in vivo to 4,6-dihydroxy pyrazolo[3,4-d]pyrimidine
4 | Cc1cccc(-c2cnn3c(O)ccnc23)c1 [Compound (10), 3-(m-tolyl)pyrazolo[1,5a]pyrimidin-7-ol] | 50 | IC50 [1]: 100 nM
5 | 3-(p-bromophenyl)pyrazolo[1,5,a]pyramidine-5,7-diol [Compound (4)] | 56 | –
6 | 3-(p-chlorophenyl)pyrazolo[1,5,a]pyrimidine-5,7-diol [(5)] | 131 | –
7 | 3-(p-acetamidophenyl)pyrazolo[1,5,a]pyrimidine-5,7-diol [(6)] | 200 | –
8 | 3-(p-tolyl)pyrazolo[1,5,a]pyrimidine-5,7-diol [(3)] | 151 | –
9 | Oc1nc(O)c2cn[nH]c2n1 [4,6-dihydroxy pyrazolo[3,4-d]pyrimidine] | – | inhibitor effectiveness compared with allopurinol (xanthine oxidase): not as effective an inhibitor as is allopurinol
10 | 3-piperonylpyrazolo[1,5,a]pyrimidine-5,7-diol [(7)] | 172 | –
11 | 3-(1'-naphthyl)pyrazolo[1,5,a]pyrimidine-5,7-diol [Compound (9)] | 20 | –
12 | 3-phenyl pyrazolo[1,5,a]pyrimidine-5,7-diol [Compound (1)] | 52 | –
13 | 3-(m-tolyl)pyrazolo[1,5,a]pyrimidine-5,7-diol [(2)] | 116 | –
